Numbers after ± are expanded uncertainties.
Test: activity coefficient (dimensionless); of the first substance listed, at infinite dilution; xn = mol fraction of the nth substance listed
Details: Liquid, Chromatography, x1 = 0

activity coefficient (303.15 K) | activity coefficient (308.15 K) | activity coefficient (313.15 K) | activity coefficient (318.15 K) | SMILES
0.77 ± 0.07 | 0.79 ± 0.07 | 0.81 ± 0.07 | 0.83 ± 0.07 | CCCCCCC [heptane] + CC(CC(C)(C)C)CP(=O)([O-])CC(C)CC(C)(C)C.CCCCCCCCCCCCCC[P+](CCCCCC)(CCCCCC)CCCCCC
0.66 ± 0.06 | 0.69 ± 0.06 | 0.7 ± 0.06 | 0.71 ± 0.06 | CCCCC [pentane] + CC(CC(C)(C)C)CP(=O)([O-])CC(C)CC(C)(C)C.CCCCCCCCCCCCCC[P+](CCCCCC)(CCCCCC)CCCCCC
0.71 ± 0.06 | 0.73 ± 0.06 | 0.73 ± 0.06 | 0.75 ± 0.06 | CCCCCC [hexane] + CC(CC(C)(C)C)CP(=O)([O-])CC(C)CC(C)(C)C.CCCCCCCCCCCCCC[P+](CCCCCC)(CCCCCC)CCCCCC
0.79 ± 0.07 | 0.82 ± 0.07 | 0.85 ± 0.07 | 0.86 ± 0.07 | CCCCCCCC [octane] + CC(CC(C)(C)C)CP(=O)([O-])CC(C)CC(C)(C)C.CCCCCCCCCCCCCC[P+](CCCCCC)(CCCCCC)CCCCCC
0.63 ± 0.06 | 0.65 ± 0.06 | 0.68 ± 0.06 | 0.7 ± 0.06 | C=CCCCC [hex-1-ene] + CC(CC(C)(C)C)CP(=O)([O-])CC(C)CC(C)(C)C.CCCCCCCCCCCCCC[P+](CCCCCC)(CCCCCC)CCCCCC
0.75 ± 0.06 | 0.76 ± 0.06 | 0.78 ± 0.07 | 0.81 ± 0.07 | C=CCCCCCC [oct-1-ene] + CC(CC(C)(C)C)CP(=O)([O-])CC(C)CC(C)(C)C.CCCCCCCCCCCCCC[P+](CCCCCC)(CCCCCC)CCCCCC

Second part, the molecule before the results:

SMILES | activity coefficient (303.15 K) | activity coefficient (308.15 K) | activity coefficient (313.15 K) | activity coefficient (318.15 K)
C#CCCCCCC [1-octyne] + CC(CC(C)(C)C)CP(=O)([O-])CC(C)CC(C)(C)C.CCCCCCCCCCCCCC[P+](CCCCCC)(CCCCCC)CCCCCC | 0.28 ± 0.03 | 0.33 ± 0.04 | 0.36 ± 0.04 | 0.39 ± 0.04
C1CCCCCC1 [cycloheptane] + CC(CC(C)(C)C)CP(=O)([O-])CC(C)CC(C)(C)C.CCCCCCCCCCCCCC[P+](CCCCCC)(CCCCCC)CCCCCC | 0.56 ± 0.05 | 0.56 ± 0.05 | 0.58 ± 0.05 | 0.6 ± 0.05
C#CCCCC [1-hexyne] + CC(CC(C)(C)C)CP(=O)([O-])CC(C)CC(C)(C)C.CCCCCCCCCCCCCC[P+](CCCCCC)(CCCCCC)CCCCCC | 0.38 ± 0.04 | 0.4 ± 0.04 | 0.43 ± 0.04 | 0.46 ± 0.04
c1ccccc1 [benzene] + CC(CC(C)(C)C)CP(=O)([O-])CC(C)CC(C)(C)C.CCCCCCCCCCCCCC[P+](CCCCCC)(CCCCCC)CCCCCC | 0.44 ± 0.04 | 0.47 ± 0.04 | 0.48 ± 0.05 | 0.49 ± 0.05
C#CCCCCC [1-heptyne] + CC(CC(C)(C)C)CP(=O)([O-])CC(C)CC(C)(C)C.CCCCCCCCCCCCCC[P+](CCCCCC)(CCCCCC)CCCCCC | 0.33 ± 0.04 | 0.35 ± 0.04 | 0.39 ± 0.04 | 0.41 ± 0.04
C1CCCC1 [cyclopentane] + CC(CC(C)(C)C)CP(=O)([O-])CC(C)CC(C)(C)C.CCCCCCCCCCCCCC[P+](CCCCCC)(CCCCCC)CCCCCC | 0.45 ± 0.04 | 0.46 ± 0.04 | 0.48 ± 0.05 | 0.5 ± 0.05
C1CCCCC1 [cyclohexane] + CC(CC(C)(C)C)CP(=O)([O-])CC(C)CC(C)(C)C.CCCCCCCCCCCCCC[P+](CCCCCC)(CCCCCC)CCCCCC | 0.51 ± 0.05 | 0.52 ± 0.05 | 0.54 ± 0.05 | 0.56 ± 0.05
C=CCCC [1-pentene] + CC(CC(C)(C)C)CP(=O)([O-])CC(C)CC(C)(C)C.CCCCCCCCCCCCCC[P+](CCCCCC)(CCCCCC)CCCCCC | 0.59 ± 0.05 | 0.61 ± 0.05 | 0.62 ± 0.05 | 0.64 ± 0.06

Reference: the NIST ThermoML archive (doi:10.1016/j.jct.2008.04.002)
